The values that follow come from PubChem BioAssay (NCI).

“And” between values parts separate entries of the source, which are not always exact repeats. Equal entries are not always repeated.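 Step 1: Grow cells in 96-well plates. Step 2: Expose to compound for 48 hours at 5 concentrations. Step 3: Interpolate endpoints linearly; if unreached, use highest concentration. At the GI50, growth is halved. TGI: total growth inhibition.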

Holding throughout (assay): NCI tumour cell line growth inhibition, 48 h
Assay [1] relates to OVCAR-4 ovarian.
Assay [2] concerns NCI-H460 lung.
Assay [3] concerns SK-MEL-5 melanoma.
In assay [4] the test system is COLO 205 colon.
Assay [5] has as its system SNB-75 CNS.
In assay [6] the test system is OVCAR-8 ovarian.
The subject of assay [7] is NCI-H522 lung.
Assay [8] concerns SF-539 CNS.
Assay [9] concerns SW-620 colon.

Consider `O=C(O)CCNS(=O)(=O)c1ccc(NC(=O)c2ccccc2)cc1`, for which the TGI in assay [1], in assay [2], in assay [3], in assay [4], in [5] and in [6] was over 100 µM each time. Besides, the TGI in assay [7], in [8] and in [9] was over 100 µM throughout.
With `CCC1(O)C(=O)OCc2c1cc1n(c2=O)Cc2cc3ccccc3nc2-1` (stereo unspecified), the TGI is over 100 µM in assay [1]; 10.7 µM in assay [2]; 0.312 µM in assay [3]; 3.55 µM in assay [4]; 0.19 µM in assay [5]; 15.7 µM in assay [6]. Also, the TGI in assay [7] is 3.89 µM; in assay [8], over 100 µM; in assay [9] it was over 41.2 µM. Further, the GI50 in assay [8] was 0.0107 µM.
For the compound `CCc1cccc(C)c1NS(=O)(=O)c1ccccc1`, the TGI in assay [1], in assay [2], in [3], in [5], in assay [6] and in assay [8] was over 100 µM each time. Also, the TGI in assay [9] is over 100 µM.
As to `C[N+](C)(C)CCC(=O)CC[N+](C)(C)C`, the TGI in assay [1] was 34.8 µM; in assay [2], 76.9 µM; in assay [3], over 100 µM; in assay [4] it was 31.8 µM; in assay [5], 73.3 µM; in [6], 44 µM. Also, the TGI in assay [7] stood at 29.4 µM; in assay [8] it was 41 µM; in assay [9], 35.4 µM.
Take `O=C(NCCCOC(=O)CCCCCCCCC(=O)OCCCNC(=O)NC(=O)c1c[nH]c(=O)[nH]c1=O)NC(=O)c1c[nH]c(=O)[nH]c1=O`: the TGI in assay [1], in assay [2], in [3], in assay [4], in [6] and in assay [8] was over 100 µM in each case. In [9], this compound yielded a TGI of over 100 µM.
Consider `CCOC(=O)Cc1nc2ccc3c(c2[nH]c1=O)C(=O)c1ccccc1C3=O`, for which the TGI in assay [1], in [2], in [3], in [4], in [5] and in assay [6] was over 100 µM each time. For the same compound, the TGI in [7], in assay [8] and in assay [9] was over 100 µM in each case.
As to `CCSCCCSCCSCC`, the TGI in [1], in assay [2], in [3], in assay [4], in assay [5] and in assay [6] was over 100 µM in each case. Further, the TGI in assay [7], in [8] and in assay [9] was over 100 µM in each case.
`O=C1C[C@H]2CCCN2[C@@H](c2ccccc2)C1`: the TGI in assay [1], in assay [2], in assay [3], in [4], in [5] and in assay [6] was over 100 µM in each case. Besides, the TGI in [7], in [8] and in assay [9] was over 100 µM in each case.
For the compound `Cc1ccc(S(=O)(=O)SC/C=C\CSS(=O)(=O)c2ccc(C)cc2)cc1`, the GI50 in [1] is 53.1 µM and 20.1 µM; in assay [4], 8.94 µM and 18.8 µM; in assay [7], 3.79 µM and 17.1 µM; in [8], 7 µM and 17.2 µM. Moreover, the TGI was > 100 µM and 41.2 µM in assay [1]; > 94 µM and 99.4 µM in [2]; over 100 µM in assay [3]; 33.1 µM and 33.6 µM in assay [4]; over 100 µM in assay [5]; 46.8 µM and 33.9 µM in assay [6]. Moreover, the TGI in assay [7] was 15.6 µM and 30.8 µM; in assay [8], 43.6 µM and 33.3 µM; in assay [9] it was 74.2 µM and 29.8 µM.
Turning to `COC1=NCc2ccccc2-c2ccccc21`, the TGI in [1], in assay [2], in assay [3], in assay [5], in [6] and in assay [7] was over 100 µM in each case. The compound further registered a TGI in [8] of over 100 µM.
`Oc1cc(Cc2ccccc2)c(Cc2ccccc2)cc1O`: the TGI in [1], in assay [2], in assay [3], in assay [4], in [5] and in [6] was over 10 µM each time. Besides, the TGI in [7], in assay [8] and in [9] was over 10 µM in each case.
As to `CCCN1C(=O)NC(=O)C(CC)(N2C(=O)c3c(F)c(F)c(F)c(F)c3C2=O)C1=O` (stereo unspecified), the GI50 in assay [1] was 2.22 µM; in [2], 2.24 µM; in assay [3] it was 2.37 µM; in assay [4] it was 1.74 µM; in assay [5], 1.81 µM; in [6] it was 2.54 µM. Besides, the GI50 in assay [7] is 1.32 µM; in [8], 1.92 µM; in [9] it was 1.3 µM. The TGI was found to be 4.83 µM in [1]; 5.71 µM in assay [2]; 7.71 µM in assay [3]; 3.29 µM in assay [4]; 4.52 µM in assay [5]; 7.81 µM in assay [6]. Moreover, the TGI in [7] was found to be 3.34 µM; in [8], 4.14 µM; in [9], 2.82 µM.
For the compound `CC(=O)c1c(O)c(C)c(O)c(Cc2c(O)c3c(c(C(=O)/C=C/c4ccccc4)c2O)OC(C)(C)C=C3)c1O`, the TGI in assay [1] was found to be 29.4 µM; in assay [2], 16.4 µM; in assay [3], 5.75 µM; in [4], 3.95 µM; in assay [5] it was 7.93 µM; in [6], 23.7 µM. The figures for the TGI in assay [7], in [8] and in [9] were 11.5 µM, 26.5 µM and 14.8 µM, respectively.
As to `COC(=O)c1sc(C(=O)OC)c2c1CS(=O)C2`, the TGI in assay [1], in [3], in assay [4], in assay [5], in assay [6] and in assay [7] was over 100 µM each time. Further, the TGI in assay [8] and in [9] was over 100 µM throughout.
As to `C/C=C/C(C#N)O[Si](C)(C)C` (stereo unspecified), the TGI in assay [1], in assay [2], in [3], in [4], in assay [5] and in [6] was over 100 µM in each case. The TGI in [7], in assay [8] and in assay [9] was over 100 µM throughout.
Turning to `O=C(Oc1cccnc1)c1cccnc1Nc1ccnc(C(F)(F)F)c1`, the GI50 is over 100 µM in assay [1]; 40.4 µM in assay [2]; 6.99 µM in assay [3]; 27.4 µM in assay [4]; 64.9 µM in assay [6]; 14.5 µM in assay [7]. For the same compound, the GI50 in [9] is 5.47 µM. The TGI in assay [1] is over 100 µM; in assay [2], over 100 µM; in assay [3], 63.4 µM; in assay [4] it was 72.4 µM; in assay [6] it was over 100 µM; in [7], over 100 µM. The TGI in assay [9] is over 100 µM.
As to `O=C1Nc2ccccc2C1(O)C/C(=N/O)c1ccc2ccccc2c1` (stereo unspecified), the TGI in assay [1], in assay [2], in assay [4], in [5], in [6] and in assay [7] was over 100 µM throughout. The TGI in assay [8] and in [9] was over 100 µM each time.
As for `Cn1c(=O)c(N=Nc2c(=O)n(C)c(=O)n3c2[nH]c2ccccc23)c2[nH]c3ccccc3n2c1=O`, the TGI is over 100 µM in [1]; over 100 µM in [2]; over 100 µM in assay [3]; over 100 µM in assay [4]; 91.6 µM in assay [5]; over 100 µM in [6]. Also, the TGI in assay [7], in [8] and in assay [9] was over 100 µM in each case.
`COc1ccc2nccc(C3=CCC4CCN(C(=O)c5ccccc5)C3C4)c2c1` (stereo unspecified): the TGI in [1], in assay [2], in assay [3], in [4], in assay [5] and in assay [6] was over 100 µM each time. For the same compound, the TGI in [7], in assay [8] and in [9] was over 100 µM in each case.
As to `Cn1c(=O)nc2n(-c3ccc(O)cc3)c3ccccc3nc-2c1=O`, the TGI in [1], in [2], in [3], in assay [4], in assay [5] and in [6] was over 100 µM in each case. For the same compound, the TGI in assay [7] is over 100 µM; in assay [8] it was 59.7 µM; in [9], over 100 µM.
